In patent publication US20230143545A1, “Treating Pulmonary Inflammatory Disease Associated With Covid-19 By Administering Resiniferatoxin” (Sorrento Therapeutics, Inc., priority 2020, published 2023):
“Also recorded” adds a separate entry of the source.

Tests used:
Bleo-exposed rats [1] = test: Plasma cytokine ELISA in rat model of bleomycin lung injury; type: in vivo; details: epidural RTX at day 3 after Bleo; day 7
Procedure: Rat Model of Lung Injury.
Epidural Application of RTX.
Cytokine Assays. […] Organ weights were evaluated post-mortem.

Bleo-exposed rats [2] = test: Lung plasma extravasation (Evans Blue) in rat model of bleomycin lung injury; details: day 7
Procedure: (§1) Rat Model of Lung Injury. Rats were randomized into three groups and evaluated at 1-week post-instillation as follows: sham rats, bleomycin (Bleo)-exposed rats with saline (epidural or intra-stellate injection), and Bleo-exposed rats with RTX (epidural or intra-stellate injection). Bleo (2.5 mg/kg, —0.15 mL) was instilled intra-tracheally to the lungs under 3% isoflurane anesthesia. Sham control rats underwent intra-tracheal instillation of saline. Animals were treated with RTX or vehicle (Veh; phosphate buffered saline) by either the epidural T1-T4 DRGs route (6 μg/ml, 10 μl/per ganglia) or intra-stellate ganglia administration (50μg/ml, 5 μl/per side) 3 days following Bleo delivery (FIG. 1A-B).
Epidural Application of RTX. The upper thoracic spinal afferents were ablated by epidural application of RTX. […] Briefly, rats were anesthetized using 2%-3% isoflurane:oxygen mixture. Rats were placed in the prone position and a small midline incision was made in the region of the T13-L1 thoracic vertebrae. Following dissection of the superficial muscles, two small holes (approximately 2 mm×2 mm) were made in the left and right sides of T13 vertebrae. A polyethylene catheter (PE-10) was inserted into the subarachnoid space via one hole and gently advanced about 4 cm approximating the T1 level. The upper thoracic sympathetic afferent ganglia were ablated by injecting resiniferatoxin (RTX; Sigma Aldrich), an ultra-potent agonist of the TRPV1 receptor into the subarachnoid space via the catheter. RTX (1 mg; Sigma Aldrich) was dissolved in a 1:1:8 mixture of ethanol, Tween 80 (Sigma-Aldrich), and isotonic saline. The first injection of RTX (6 μg/ml, 10 ul) was made at a very slow speed (˜1 minute) to minimize the diffusion of the drug. The catheter was then pulled back to T2, T3 and T4, respectively to perform serial injections (10 μl/each) at each segment. The catheter was withdrawn and the same injections were repeated on the other side. Silicone gel was used to seal the hole in the T13 vertebra. […]
Lung Plasma Extravasation, Tissue Extraction, and Quantification of Evans Blue. […]

Bleo-exposed rats [3] = test: Body weight and organ weights post-mortem in rat model of bleomycin lung injury
Procedure: as §1
Intra-stellate Injection of RTX Rats were anesthetized using 2%-3% isoflurane:oxygen mixture. […] The skin from the rostral end of the sternum to the level of third rib was incised. Portions of the superficial and deep pectoral muscles and the first intercostal muscles were cut and dissected. To localize the left or right stellate ganglion, the left or right precava vein were separated with a hooked glass or steel rod laterally away from the brachiocephalic artery to expose the internal thoracic artery and the costocervical artery, which are descending branches of the right subclavian artery. Stellate ganglia and ansa subclavia are located medially to the origins of the internal thoracic and costocervical arteries. Then, RTX (5 μl, 50 mg/ml) was injected into the ganglia with a 5-μl Hamilton syringe (Microliter #95, Hamilton, Reno, Nev., USA.) over 30 s bilaterally. […]
(§2) Statistics. Statistical evaluation was analyzed using GraphPad Prism (GraphPad Software, San Diego, Calif. Version 8). Differences between treatments were determined using a Mixedeffects model for repeated-measures ANOVA. […]

Bleo-exposed rats [4] = test: Arterial blood gas analysis in rat model of bleomycin lung injury; details: intra-stellate RTX at day 3 after Bleo; day 7; vs. Bleo+Veh
Procedure: as §1
Intra-stellate Injection of RTX Rats were anesthetized using 2%-3% isoflurane:oxygen mixture. […] The skin from the rostral end of the sternum to the level of third rib was incised. Portions of the superficial and deep pectoral muscles and the first intercostal muscles were cut and dissected. To localize the left or right stellate ganglion, the left or right precava vein were separated with a hooked glass or steel rod laterally away from the brachiocephalic artery to expose the internal thoracic artery and the costocervical artery, which are descending branches of the right subclavian artery. Stellate ganglia and ansa subclavia are located medially to the origins of the internal thoracic and costocervical arteries. Then, RTX (5 μl, 50 mg/ml) was injected into the ganglia with a 5-μl Hamilton syringe (Microliter #95, Hamilton, Reno, Nev., USA.) over 30 s bilaterally. An image of this procedure is shown in FIG. 2A-B. Following these maneuvers, the thorax between the first and second intercostal spaces was closed with continuous 4-0 Dexon II coated braided absorbable polyglycolic acid suture and the skin was closed with 3-0 polypropylene suture and the chest evacuated. […]
as §2

Bleo-exposed rats [5] = test: Lung tissue cytokine ELISA in rat model of bleomycin lung injury; details: day 7
Procedure: as §1
Epidural Application of RTX. The upper thoracic spinal afferents were ablated by epidural application of RTX. […] Briefly, rats were anesthetized using 2%-3% isoflurane:oxygen mixture. Rats were placed in the prone position and a small midline incision was made in the region of the T13-L1 thoracic vertebrae. Following dissection of the superficial muscles, two small holes (approximately 2 mm×2 mm) were made in the left and right sides of T13 vertebrae. A polyethylene catheter (PE-10) was inserted into the subarachnoid space via one hole and gently advanced about 4 cm approximating the T1 level. The upper thoracic sympathetic afferent ganglia were ablated by injecting resiniferatoxin (RTX; Sigma Aldrich), an ultra-potent agonist of the TRPV1 receptor into the subarachnoid space via the catheter. RTX (1 mg; Sigma Aldrich) was dissolved in a 1:1:8 mixture of ethanol, Tween 80 (Sigma-Aldrich), and isotonic saline. The first injection of RTX (6 μg/ml, 10 ul) was made at a very slow speed (˜1 minute) to minimize the diffusion of the drug. The catheter was then pulled back to T2, T3 and T4, respectively to perform serial injections (10 μl/each) at each segment. The catheter was withdrawn and the same injections were repeated on the other side. Silicone gel was used to seal the hole in the T13 vertebra. The skin overlying the muscle were closed with a 3-0 polypropylene simple interrupted suture, and betadine was applied to the wound. For post-procedure pain management, buprenorphine (0.05 mg/kg) was subcutaneously injected immediately after surgery and twice daily for 2 days.
Intra-stellate Injection of RTX Rats were anesthetized using 2%-3% isoflurane:oxygen mixture. […] The skin from the rostral end of the sternum to the level of third rib was incised. Portions of the superficial and deep pectoral muscles and the first intercostal muscles were cut and dissected. To localize the left or right stellate ganglion, the left or right precava vein were separated with a hooked glass or steel rod laterally away from the brachiocephalic artery to expose the internal thoracic artery and the costocervical artery, which are descending branches of the right subclavian artery. Stellate ganglia and ansa subclavia are located medially to the origins of the internal thoracic and costocervical arteries. Then, RTX (5 μl, 50 mg/ml) was injected into the ganglia with a 5-μl Hamilton syringe (Microliter #95, Hamilton, Reno, Nev., USA.) over 30 s bilaterally. […] Betadine was applied to the wound and the rats were allowed to recover from the anesthesia. […]
Cytokine Assays. Lung and plasma cytokines were measured with R&D cytokine ELISA assays (Minneapolis, Minn., USA) according to the manufacturer's instructions.

[6] = intra-stellate RTX at day 3 after Bleo, day 7, vs. Bleo+Veh
[7] = epidural RTX at day 3 after Bleo, vs. Bleo
[8] = stellate RTX at day 3 after Bleo, vs. Bleo+Veh

C=C(C)[C@]12C[C@@H](C)[C@@]34O[C@](Cc5ccccc5)(O[C@@H]1[C@@H]3C=C(COC(=O)Cc1ccc(O)c(OC)c1)C[C@]1(O)C(=O)C(C)=C[C@@H]41)O2 [RTX, resiniferatoxin] was tested, and the “Plasma cytokine levels in response to Bleo” value (Bleo-exposed rats [1]) was “reduced”, the “Plasma extravasation (Evans Blue areas / concentration in lung)” value (Bleo-exposed rats [2]; epidural RTX T1-T4 (6 μg/ml, 10 μl/per ganglia) at day 3 after Bleo 2.5 mg/kg intra-tracheal, vs. Bleo) was “reduced” and the “Plasma extravasation (Evans Blue dye in the lung)” value (Bleo-exposed rats [2]; intra-stellate RTX (50μg/ml, 5 μl/per side) at day 3 after Bleo, vs. Bleo+Veh) was “marked reduction; also recorded: reduced”. The “Ratio of WLW to BW” value (Bleo-exposed rats [3]; [6]) was “significantly reduced”, the “Wet lung weight (WLW)” value (Bleo-exposed rats [3]; [6]) was “significantly reduced” and the Body weight (Bleo-exposed rats [3]; stellate ganglia administration of RTX in rats with lung injury) was “improved”. The “Arterial pCO2 (elevated by Bleo)” value (Bleo-exposed rats [4]) was “reversed these changes”, the “Arterial pO2 (reduced by Bleo)” value (Bleo-exposed rats [4]) was “reversed these changes” and the “Arterial sO2 (reduced by Bleo)” value (Bleo-exposed rats [4]) was “reversed these changes”. For the same compound, the “Lung tissue IFNγ level” value (Bleo-exposed rats [5]; [7]) was “reduced”, the “Lung tissue IL-1β level” value (Bleo-exposed rats [5]; [7]) was “reduced” and the “Lung tissue IL-6 level” value (Bleo-exposed rats [5]; [7]) was “reduced”. For the same compound, the “Lung tissue IL-1β level” value (Bleo-exposed rats [5]; [8]) was “significantly reduced” and the “Lung tissue IL-6 level” value (Bleo-exposed rats [5]; [8]) was “significantly reduced”.
